Read-outs that look alike come from different tables or passages of the source.
Tests used:
[1] = molecular target: T1, human PRMT4 (full length) (Homo sapiens, UniProt Q86X55); experiment: SPR binding to immobilized PRMT4
T1 construct: Full-length recombinant PRMT4 (Active motif, # 81107); purchased Active motif # 81107
T1 sequence (Q86X55 1-608): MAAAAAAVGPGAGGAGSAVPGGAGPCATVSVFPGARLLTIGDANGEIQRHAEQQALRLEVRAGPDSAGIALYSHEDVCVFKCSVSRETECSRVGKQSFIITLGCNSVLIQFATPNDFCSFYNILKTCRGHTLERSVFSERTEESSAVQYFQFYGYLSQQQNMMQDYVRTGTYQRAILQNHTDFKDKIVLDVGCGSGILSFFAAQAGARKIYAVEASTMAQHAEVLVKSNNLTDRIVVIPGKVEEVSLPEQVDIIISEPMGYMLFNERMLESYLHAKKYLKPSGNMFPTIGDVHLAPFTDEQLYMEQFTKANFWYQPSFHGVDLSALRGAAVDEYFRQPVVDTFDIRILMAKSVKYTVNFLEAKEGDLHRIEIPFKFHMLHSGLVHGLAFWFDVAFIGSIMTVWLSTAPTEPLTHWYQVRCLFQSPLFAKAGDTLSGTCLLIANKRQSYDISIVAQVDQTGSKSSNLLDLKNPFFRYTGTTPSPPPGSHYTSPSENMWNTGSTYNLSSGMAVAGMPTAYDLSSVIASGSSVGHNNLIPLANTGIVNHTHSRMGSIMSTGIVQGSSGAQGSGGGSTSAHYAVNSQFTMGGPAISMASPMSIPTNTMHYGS
Protocol: To this aim, human PRMT4 (full length) was covalently immobilized on a sensor chip surface using an amine-coupling approach, and the three compounds were injected at different concentrations over the protein surface. To reduce false positives from detergent-sensitive, nonspecific aggregation-based binding, detergents (0.05% Tween-20) were added to the running buffer in all experiments.
SPR experiments were performed on a Biacore T200 biosensor (Cytiva). PBS buffer (phosphate-buffered saline, pH 7.4) supplemented with 0.05% Tween-20 was used as the running buffer. […] One flow cell was left empty for background subtractions. […] Each compound was tested in […], prepared starting from 640 to 10 nM. Binding experiments were performed at 25 °C by using a flow rate of 30 μL/min, with 90 s monitoring of association and 90 s monitoring of dissociation. Regeneration of the surfaces was performed, when necessary, by a 10 s injection of 5 mM NaOH. […] The corrected sensorgrams for each compound were fitted simultaneously using a 1:1 Langmuir model to obtain equilibrium dissociation constants (KD) and kinetic dissociation (koff) and association (kon) constants.

[2] = molecular target: PRMT5/MEP50 complex (Homo sapiens, UniProt O14744); experiment: Radioisotope-based filter-binding (HotSpot) assay, PRMT5; conditions: radioisotope-based filter assay
Protocol: (§1) Then, ^3H-SAM (final concentration 1 μM) was delivered into the reaction mixture to initiate the reaction. After incubation for 60 min at 30 °C, the reaction mixture was delivered to filter paper for detection (as assessed by scintillation). Data were analyzed using Excel and GraphPad Prism 6.0 software (GraphPad Software Inc., San Diego, CA) for IC50 curve fits using sigmoidal dose vs response-variable slope (four parameters) equations.

[3] = molecular target: PRMT1 (Homo sapiens, UniProt Q99873); experiment: Radioisotope-based filter-binding (HotSpot) assay, PRMT1; conditions: radioisotope-based filter assay
Protocol: as §1

[4] = molecular target: T2, PRMT4 (Homo sapiens, UniProt Q86X55); experiment: Radioisotope-based filter-binding (HotSpot) assay, PRMT4; conditions: for IC50: radioisotope-based filter assay
T2 sequence (Q86X55 2-608): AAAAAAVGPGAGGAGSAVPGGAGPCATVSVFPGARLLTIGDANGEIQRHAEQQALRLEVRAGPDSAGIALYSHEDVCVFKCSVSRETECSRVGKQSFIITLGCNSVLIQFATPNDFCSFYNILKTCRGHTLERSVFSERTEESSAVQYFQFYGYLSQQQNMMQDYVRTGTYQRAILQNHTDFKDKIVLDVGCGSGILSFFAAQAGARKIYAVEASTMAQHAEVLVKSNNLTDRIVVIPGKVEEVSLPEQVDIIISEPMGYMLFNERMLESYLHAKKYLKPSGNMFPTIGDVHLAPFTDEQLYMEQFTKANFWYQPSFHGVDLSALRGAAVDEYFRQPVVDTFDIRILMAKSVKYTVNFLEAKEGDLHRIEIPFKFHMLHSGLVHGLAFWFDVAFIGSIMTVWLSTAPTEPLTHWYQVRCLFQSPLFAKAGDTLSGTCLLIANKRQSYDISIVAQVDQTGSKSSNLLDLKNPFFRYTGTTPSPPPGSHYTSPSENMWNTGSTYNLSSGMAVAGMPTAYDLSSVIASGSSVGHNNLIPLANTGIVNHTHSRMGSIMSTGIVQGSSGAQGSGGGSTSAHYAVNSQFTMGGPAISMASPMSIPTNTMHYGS
Protocol: as §1

[5] = molecular target: PRMT3 (Homo sapiens, UniProt O60678); experiment: Radioisotope-based filter-binding (HotSpot) assay, PRMT3; conditions: radioisotope-based filter assay
Protocol: as §1

[6] = Parallel artificial membrane permeability assay (PAMPA); type: in vitro ADME; conditions: phosphate buffer pH 7.4, donor 0.2 mM, 24 h at room temperature
Protocol: A donor solution (0.2 mM) was prepared by diluting 20 mM dimethyl sulfoxide (DMSO) compound stock solution using phosphate buffer (pH 7.4, 0.01 M). Filters were coated with 5 μL of a 1% (w/v) dodecane solution of L-α-phosphatidylcholine. Donor solution (150 μL) was added to each well of the filter plate. To each well of the acceptor plate, 300 μL of solution (5% DMSO in phosphate buffer) was added. […] The sandwich was incubated for 24 h at room temperature under gentle shaking. After the incubation time, the sandwich plates were separated, and 250 μL of the acceptor plate was transferred to a UV quartz microtiter plate and measured by UV spectroscopy, using a Multiskan GO microplate spectrophotometer (Thermo Fisher Scientific) at 250–500 nm at a step of 5 nm. Reference solutions (250 μL) were prepared diluting the sample stock solutions to the same concentration as that with no membrane barrier.

[7] = molecular target: PRMT6 (Homo sapiens, UniProt Q96LA8); experiment: Radioisotope-based filter-binding (HotSpot) assay, PRMT6; conditions: radioisotope-based filter assay
Protocol: as §1

[8] = read-out: IC50 (μM) PRMT5, 5 μM histone H2A, 1 μM 3H-SAM
[9] = read-out: IC50 (μM) PRMT4, 5 μM histone H3, 1 μM 3H-SAM
[10] = read-out: IC50 (μM) PRMT3, 5 μM histone H4, 1 μM 3H-SAM
[11] = read-out: IC50 PRMT3 (Figure 5 heatmap)
[12] = read-out: IC50 (μM) PRMT6, 5 μM GST-GAR, 1 μM 3H-SAM
[13] = read-out: IC50 PRMT6 (Figure 5 heatmap)

PRMT5/MEP50 complex, sequence (O14744 2-637): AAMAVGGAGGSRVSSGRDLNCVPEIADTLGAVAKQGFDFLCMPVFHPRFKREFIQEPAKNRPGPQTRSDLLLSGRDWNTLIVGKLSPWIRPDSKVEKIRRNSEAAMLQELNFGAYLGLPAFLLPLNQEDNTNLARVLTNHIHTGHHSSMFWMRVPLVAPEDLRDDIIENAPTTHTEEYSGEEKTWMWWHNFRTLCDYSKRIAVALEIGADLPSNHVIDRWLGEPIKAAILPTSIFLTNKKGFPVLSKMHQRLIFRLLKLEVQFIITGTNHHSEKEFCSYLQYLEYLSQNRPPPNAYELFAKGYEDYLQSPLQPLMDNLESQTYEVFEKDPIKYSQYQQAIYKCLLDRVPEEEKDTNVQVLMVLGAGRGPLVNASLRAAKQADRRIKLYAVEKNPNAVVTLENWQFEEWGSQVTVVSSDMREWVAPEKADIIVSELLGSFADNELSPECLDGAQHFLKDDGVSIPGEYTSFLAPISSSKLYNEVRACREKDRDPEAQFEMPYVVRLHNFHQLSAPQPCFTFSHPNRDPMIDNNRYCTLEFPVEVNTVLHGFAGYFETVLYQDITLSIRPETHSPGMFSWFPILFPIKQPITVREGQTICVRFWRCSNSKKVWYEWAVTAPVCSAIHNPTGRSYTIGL
PRMT5/MEP50 complex, sequence (Q9BQA1 2-342 partner limits assumed): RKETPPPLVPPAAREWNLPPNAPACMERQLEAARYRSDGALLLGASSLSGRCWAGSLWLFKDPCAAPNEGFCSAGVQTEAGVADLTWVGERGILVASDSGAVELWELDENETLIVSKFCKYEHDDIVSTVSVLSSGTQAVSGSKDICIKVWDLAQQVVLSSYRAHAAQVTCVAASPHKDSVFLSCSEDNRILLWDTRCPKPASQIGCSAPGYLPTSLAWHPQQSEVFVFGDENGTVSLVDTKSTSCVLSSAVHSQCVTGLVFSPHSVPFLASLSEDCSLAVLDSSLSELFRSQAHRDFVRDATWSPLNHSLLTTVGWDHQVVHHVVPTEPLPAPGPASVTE
PRMT3, sequence (O60678 2-531): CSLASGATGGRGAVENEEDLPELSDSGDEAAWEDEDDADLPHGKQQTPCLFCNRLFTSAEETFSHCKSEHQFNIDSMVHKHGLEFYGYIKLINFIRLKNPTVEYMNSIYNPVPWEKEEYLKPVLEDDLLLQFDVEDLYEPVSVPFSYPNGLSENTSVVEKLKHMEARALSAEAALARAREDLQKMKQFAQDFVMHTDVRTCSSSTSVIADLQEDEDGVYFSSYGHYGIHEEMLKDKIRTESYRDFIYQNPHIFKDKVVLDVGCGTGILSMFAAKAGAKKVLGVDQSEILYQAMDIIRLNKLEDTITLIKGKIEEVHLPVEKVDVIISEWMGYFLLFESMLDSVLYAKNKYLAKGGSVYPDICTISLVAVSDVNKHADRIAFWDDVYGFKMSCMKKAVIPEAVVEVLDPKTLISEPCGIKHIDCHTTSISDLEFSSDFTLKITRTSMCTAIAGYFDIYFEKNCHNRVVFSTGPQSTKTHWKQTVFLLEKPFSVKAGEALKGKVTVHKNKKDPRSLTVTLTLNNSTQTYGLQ
PRMT6, sequence (Q96LA8 2-375): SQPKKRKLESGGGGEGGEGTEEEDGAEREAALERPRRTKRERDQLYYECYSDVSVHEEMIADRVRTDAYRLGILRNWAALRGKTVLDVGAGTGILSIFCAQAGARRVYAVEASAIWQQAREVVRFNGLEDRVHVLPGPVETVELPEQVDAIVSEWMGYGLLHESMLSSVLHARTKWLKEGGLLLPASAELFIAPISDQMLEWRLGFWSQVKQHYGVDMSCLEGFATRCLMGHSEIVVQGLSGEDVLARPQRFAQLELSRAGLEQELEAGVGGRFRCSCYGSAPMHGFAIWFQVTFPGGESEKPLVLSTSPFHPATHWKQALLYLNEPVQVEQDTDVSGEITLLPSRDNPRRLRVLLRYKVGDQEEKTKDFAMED
PRMT1, sequence (Q99873 2-371): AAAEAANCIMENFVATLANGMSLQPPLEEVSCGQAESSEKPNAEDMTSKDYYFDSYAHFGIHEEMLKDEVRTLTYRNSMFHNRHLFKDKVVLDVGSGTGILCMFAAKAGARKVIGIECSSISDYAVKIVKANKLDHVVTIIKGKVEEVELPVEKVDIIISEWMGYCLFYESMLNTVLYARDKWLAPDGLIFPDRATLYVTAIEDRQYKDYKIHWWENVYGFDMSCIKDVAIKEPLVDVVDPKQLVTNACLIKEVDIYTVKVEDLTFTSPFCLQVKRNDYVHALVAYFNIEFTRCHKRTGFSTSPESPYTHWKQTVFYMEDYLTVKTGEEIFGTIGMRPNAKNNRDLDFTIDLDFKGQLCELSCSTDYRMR

COC(=O)c1cc(O)c2cc(NC(=O)NCCCCNC(=N)NCC[C@H]3O[C@@H](n4cnc5c(N)ncnc54)[C@H](O)[C@@H]3O)ccc2c1 [12f, Methyl 6-(3-(4-(3-(2-((2R,3S,4R,5R)-5-(6-Amino-9H-purin-9-yl)-3,4-dihydroxytetrahydrofuran-2-yl)ethyl)guanidino)butyl)ureido)-4-hydroxy-2-naphthoate] showed a Kd [1] of 25.2 nM, a koff ([1]; SPR, immobilized PRMT4) of 0.068 s⁻¹ and a kon ([1]; SPR, immobilized PRMT4, read-out: kon) of 2.7e+06 M⁻¹ s⁻¹. For the same compound, the “τR” value ([1]; in vitro residence time, τ = 1/koff) was 14.7 s, the “SPR tR for PRMT4” value ([1]; supplementary csv) was 14.7 s and the kon ([1]; supplementary csv, read-out: SPR KON for PRMT4) was 2.7e+06 M⁻¹ s⁻¹. It also gave an IC50 [2, 8] of 0.115 µM, an IC50 ([3]; read-out: IC50 (μM) PRMT1, 5 μM histone H4, 1 μM 3H-SAM) of 4.86 µM and an IC50 ([3]; read-out: IC50 PRMT1 (Figure 5 heatmap)) of 4.86 µM. For the same compound, the LE ([4]; ligand efficiency for PRMT4 calculated from IC50 as a surrogate for KD) was 0.24, the “selectivity index for PRMT4 vs other PRMTs: PRMT1” value ([4]; ratio IC50 PRMT1 / IC50 PRMT4, rounded to nearest integer) was 501 and the “selectivity index for PRMT4 vs other PRMTs: PRMT3” value ([4]; ratio IC50 PRMT3 / IC50 PRMT4) was 1082. For the same compound, the “selectivity index for PRMT4 vs other PRMTs: PRMT5” value ([4]; ratio IC50 PRMT5 / IC50 PRMT4) was 12, the “selectivity index for PRMT4 vs other PRMTs: PRMT6” value ([4]; ratio IC50 PRMT6 / IC50 PRMT4) was 2340 and the “selectivity index for PRMT4 vs other PRMTs: PRMT7” value ([4]; ratio IC50 PRMT7 / IC50 PRMT4) was 23. For the same compound, the “selectivity index for PRMT4 vs other PRMTs: PRMT8” value ([4]; ratio IC50 PRMT8 / IC50 PRMT4) was 619, the IC50 [4, 9] was 0.0097 µM and the IC50 ([4]; read-out: IC50 PRMT4 (Figure 5 heatmap)) was 0.01 µM. The “SI PRMT1 (Figure 5 heatmap)” value ([4]; selectivity index for PRMT4 over PRMT1) was 501 fold, the “SI PRMT3 (Figure 5 heatmap)” value ([4]; selectivity index for PRMT4 over PRMT3) was 1,082 fold and the “SI PRMT6 (Figure 5 heatmap)” value ([4]; selectivity index for PRMT4 over PRMT6) was 2,340 fold. The “SI PRMT7 (Figure 5 heatmap)” value ([4]; selectivity index for PRMT4 over PRMT7) was 23 fold, the “SI PRMT8 (Figure 5 heatmap)” value ([4]; selectivity index for PRMT4 over PRMT8) was 619 fold and the IC50 [5, 10] was 10.5 µM. The IC50 [5, 11] was 10.5 µM, the Papp at 24 h, 0.2 mM [6] was 0.055 ×10⁻⁶ cm/s and the IC50 [7, 12] was 22.7 µM. It also gave an IC50 [7, 13] of 22.7 µM.
COC(=O)c1cc(O)c2cc(NC(=O)NCCCCNC(=N)NC/C=C/[C@H]3O[C@@H](n4cnc5c(N)ncnc54)[C@H](O)[C@@H]3O)ccc2c1 [12h, Methyl 6-(3-(4-(3-((E)-3-((2R,3S,4R,5R)-5-(6-Amino-9H-purin-9-yl)-3,4-dihydroxytetrahydrofuran-2-yl)allyl)guanidino)butyl)ureido)-4-hydroxy-2-naphthoate] showed an IC50 [2, 8] of 1.46 µM, an IC50 ([2]; read-out: IC50 PRMT5 (Figure 5 heatmap)) of 1.46 µM and an IC50 ([4]; IC50 PRMT4 (Figure 5 heatmap)) of 0.003 µM. The “gain in potency over its shorter counterpart 12b” value ([4]; PRMT4) was 668 fold, the IC50 [4, 9] was 0.0032 µM and the IC50 [5, 10] was 4.05 µM. For the same compound, the IC50 [5, 11] was 4.04 µM, the Papp at 24 h, 0.2 mM [6] was 0.038 ×10⁻⁶ cm/s and the IC50 [7, 12] was 1.75 µM. For the same compound, the IC50 [7, 13] was 1.75 µM.

From paper PMC9469100, “Turning Nonselective Inhibitors of Type I Protein Arginine Methyltransferases into Potent and Selective Inhibitors of Protein Arginine Methyltransferase 4 through a Deconstruction–Reconstruction and Fragment-Growing Approach” (Journal of Medicinal Chemistry, 2022)
